According to PubChem BioAssay (NCI):
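Test compounds were applied to cells in 96-well plates for 48 hours at 5 doses. TGI is the concentration that stops growth completely.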

Columns and labels:
Assay in all cases: growth of human tumour cells (NCI), 48 h
[1] = system: HOP-62 NSCLC
[2] = system: HCC-2998 colon
[3] = system: OVCAR-4 ovarian
[4] = system: UO-31 renal
[5] = system: SK-MEL-5 melanoma
[6] = system: SF-268 CNS
[7] = system: TK-10 renal
[8] = system: SNB-19 CNS
[9] = system: KM12 colon
[10] = system: A549 NSCLC
[11] = system: NCI-H23 lung
[12] = system: SF-295 CNS
[13] = system: MOLT-4 leukemia
[14] = system: IGROV1 ovarian
[15] = system: NCI-H226 lung
[16] = system: HT29 colon
[17] = system: UACC-62 melanoma
[18] = system: A498 renal
[19] = system: SNB-75 CNS
[20] = system: ACHN renal
[21] = system: RPMI-8226 leukemia
[22] = system: UACC-257 melanoma
[23] = system: U251 CNS
[24] = system: HS 578T breast
[25] = system: SW-620 colon
[26] = system: HCT-15 colon
[27] = system: OVCAR-3 ovarian
[28] = system: HL-60(TB) leukemia
[29] = system: HOP-92 NSCLC
[30] = system: 786-0 renal
[31] = system: CAKI-1 renal
[32] = system: PC-3 prostate
[33] = system: MCF7 breast
[34] = system: SK-MEL-28 melanoma
[35] = system: BT-549 breast
[36] = system: OVCAR-8 ovarian
[37] = system: DU-145 prostate
[38] = system: LOX IMVI melanoma
[39] = system: MALME-3M melanoma
[40] = system: RXF 393 renal
[41] = system: SR leukemia
[42] = system: NCI-H522 lung
[43] = system: HCT-116 colon
[44] = system: OVCAR-5 ovarian
[45] = system: SK-OV-3 ovarian
[46] = system: EKVX NSCLC
[47] = system: NCI/ADR-RES ovarian
[48] = system: MDA-MB-231 breast
[49] = system: K-562 leukemia
[50] = system: COLO 205 colon
[51] = system: SF-539 CNS
[52] = system: NCI-H460 lung
[53] = system: M14 melanoma
[54] = system: SN12C renal
[55] = system: MDA-N
[56] = system: T-47D breast
[57] = system: CCRF-CEM leukemia
[58] = system: SK-MEL-2 melanoma

## O=C(c1ccccc1)c1ccc2nc3n(c2c1)C(c1c(Cl)cccc1Cl)SC3 (stereo not drawn)
[1]
  TGI: > 44.4 µM
[2]
  TGI: > 50.4 µM
[3]
  TGI: > 80.3 µM
[4]
  TGI: > 67.6 µM
[5]
  TGI: 14.6 µM
[6]
  TGI: > 100 µM
[7]
  TGI: > 100 µM
[8]
  TGI: > 64.1 µM
[9]
  TGI: 19.5 µM
[10]
  TGI: 54.7 µM
[11]
  TGI: 83.6 µM
[12]
  TGI: > 26.6 µM
[13]
  TGI: 19.7 µM
[14]
  TGI: > 100 µM
[15]
  TGI: > 100 µM
[16]
  TGI: 31 µM
[17]
  TGI: > 36.5 µM
[18]
  TGI: 50.1 µM
[19]
  TGI: 18.9 µM
[20]
  TGI: > 38 µM
[21]
  TGI: > 74.7 µM
[22]
  TGI: > 100 µM
[23]
  TGI: > 100 µM
[24]
  TGI: > 65 µM
[25]
  TGI: > 100 µM
[26]
  TGI: > 100 µM
[27]
  TGI: > 100 µM
[28]
  TGI: > 53.5 µM
[29]
  TGI: > 100 µM
[30]
  TGI: > 100 µM
[31]
  TGI: > 51.7 µM
[32]
  TGI: > 100 µM
[33]
  TGI: > 100 µM
[34]
  TGI: > 100 µM
[35]
  TGI: > 100 µM
[36]
  TGI: > 55.5 µM
[37]
  TGI: > 94.5 µM
[38]
  TGI: 31.6 µM
[39]
  TGI: 31.3 µM
[40]
  TGI: > 100 µM
[41]
  TGI: 8.42 µM
[42]
  TGI: 5.1 µM
[43]
  TGI: 12.8 µM
[44]
  TGI: > 100 µM
[45]
  TGI: > 30.7 µM
[46]
  TGI: 78.6 µM
[47]
  TGI: 35.8 µM
[48]
  TGI: > 100 µM
[49]
  TGI: > 100 µM
[50]
  TGI: > 90.2 µM
[51]
  TGI: > 59.4 µM
[52]
  TGI: > 51.9 µM
[53]
  TGI: 16.9 µM
[54]
  TGI: > 68.7 µM
[55]
  TGI: 3.84 µM
[56]
  TGI: 24.5 µM
[57]
  TGI: > 100 µM
[58]
  TGI: 78.5 µM
